27 compounds from EP2970215B1, “PYRROLIDINE DERIVATIVES, PHARMACEUTICAL COMPOSITIONS CONTAINING THEM, AND THEIR USE IN THERAPY” (AbbVie Deutschland GmbH & Co. KG, priority 2013, dated 2014) can be followed below.

Each structure is given as a SMILES string.

For this test, the target named is T1, human GlyT1c transporter (Homo sapiens, UniProt P48067).
T1 construct: expressed in transfected cells; host or cells: CHO cells (recombinant; line hGlyT1c_5_CHO is named for the uptake assay)
T1 sequence (P48067 1-706): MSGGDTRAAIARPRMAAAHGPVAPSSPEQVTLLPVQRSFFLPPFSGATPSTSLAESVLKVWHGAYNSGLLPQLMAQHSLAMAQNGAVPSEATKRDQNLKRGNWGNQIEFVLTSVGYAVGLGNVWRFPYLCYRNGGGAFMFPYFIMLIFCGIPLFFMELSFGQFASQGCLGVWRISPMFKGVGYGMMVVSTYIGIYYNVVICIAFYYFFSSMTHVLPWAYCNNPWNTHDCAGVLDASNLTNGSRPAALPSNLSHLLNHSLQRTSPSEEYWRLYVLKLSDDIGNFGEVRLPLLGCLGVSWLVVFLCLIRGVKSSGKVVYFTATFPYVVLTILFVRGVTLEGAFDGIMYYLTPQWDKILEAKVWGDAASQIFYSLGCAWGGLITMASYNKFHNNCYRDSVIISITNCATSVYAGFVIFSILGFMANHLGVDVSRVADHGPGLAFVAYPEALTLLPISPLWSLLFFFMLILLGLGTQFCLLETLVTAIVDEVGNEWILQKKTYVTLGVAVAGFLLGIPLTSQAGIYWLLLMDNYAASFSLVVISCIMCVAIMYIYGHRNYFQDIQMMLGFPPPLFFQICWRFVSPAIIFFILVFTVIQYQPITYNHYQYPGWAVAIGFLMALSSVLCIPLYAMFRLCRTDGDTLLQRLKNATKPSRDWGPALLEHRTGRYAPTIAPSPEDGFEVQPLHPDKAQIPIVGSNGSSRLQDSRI
Put plainly: Radioligand binding assay using recombinant CHO cell membranes expressing human GlyT1. The source says:
2. Radioligand binding assays using recombinant CHO cell membranes expressing human GlyT1: […]

[1] abbreviates: radioligand binding to human GlyT1c transporter-expressing membranes.

For the compound `Cn1cnc(S(=O)(=O)N2C[C@@H](C(=O)Nc3ccc(F)c(OC(F)(F)F)c3)[C@H](c3ccc(F)cc3)C2)c1` (relative stereo) [Example 370, Trans-4-(4-fluorophenyl)-N-[4-fluoro-3-(trifluoromethoxy)phenyl]-1-[(1-methyl-1H-imidazol-4-yl)sulfonyl]pyrrolidine-3-carboxamide], the Ki (usually the equilibrium dissociation constant of an inhibitor or competing ligand from its target) under setting [1] was not above 1000 nM.
Take `Cn1cnc(S(=O)(=O)N2C[C@@H](Nc3ccc(Cl)c(C(F)(F)F)c3)[C@H](c3ccc(F)cc3)C2)c1` (relative stereo) [Example 172, trans-N-[4-chloro-3-(trifluoromethyl)phenyl]-4-(4-fluorophenyl)-1-[(1-methyl-1H-imidazol-4-yl)sulfonyl]pyrrolidin-3-amine]: under setting [1], the inhibition constant (Ki) was not above 100 nM.
In the case of `Cn1cnc(S(=O)(=O)N2C[C@@H](Nc3cccnc3)[C@H](c3ccccc3)C2)c1` (relative stereo) [Example 208, N-{trans-1-[(1-methyl-1H-imidazol-4-yl)sulfonyl]-4-phenylpyrrolidin-3-yl}pyridin-3-amine], the inhibition constant (Ki) under setting [1] is not above 10000 nM.
Turning to `COc1ccc(N[C@H]2CN(S(=O)(=O)c3cn(C)cn3)C[C@@H]2c2ccccc2)cc1C(F)(F)F` [Example 653, (3R,4S)-N-[4-methoxy-3-(trifluoromethyl)phenyl]-1-[(1-methyl-1H-imidazol-4-yl)sulfonyl]-4-phenylpyrrolidin-3-amine], the inhibition constant Ki under setting [1] is not above 10000 nM.
Take `CCCCCNC(=O)[C@@H]1CN(S(=O)(=O)c2cn(C)cn2)C[C@H]1c1ccc(F)cc1` (relative stereo) [Example 626, Trans-4-(4-fluorophenyl)-1-[(1-methyl-1H-imidazol-4-yl)sulfonyl]-N-pentylpyrrolidine-3-carboxamide]: the inhibition constant Ki under setting [1] is not above 1000 nM.
Turning to `CC(C)CO[C@@H]1CN(S(=O)(=O)c2cn(C)cn2)C[C@H]1Nc1cccc(Cl)c1` (relative stereo) [Example 412, Trans-N-(3-chlorophenyl)-1-[(1-methyl-1H-imidazol-4-yl)sulfonyl]-4-(2-methylpropoxy)pyrrolidin-3-amine], the inhibition constant Ki under setting [1] was not above 1000 nM.
For `CCCCOC(=O)O[C@@H]1CN(S(=O)(=O)c2cn(C)cn2)C[C@H]1c1ccc(F)cc1` [Example 697, butyl (3S,4R)-4-(4-fluorophenyl)-1-[(1-methyl-1H-imidazol-4-yl)sulfonyl]pyrrolidin-3-yl carbonate], under setting [1], the Ki is not above 1000 nM.
Turning to `Cn1cnc(S(=O)(=O)N2C[C@@H](Nc3ccccc3C(F)(F)F)[C@H](c3ccc(F)cc3)C2)c1` (relative stereo) [Example 87, trans-4-(4-fluorophenyl)-1-[(1-methyl-1H-imidazol-4-yl)sulfonyl]-N-[2-(trifluoromethyl)phenyl]pyrrolidin-3-amine], under setting [1], the Ki was not above 10000 nM.
As to `Cn1cnc(S(=O)(=O)N2C[C@@H](Nc3cc(C(F)(F)F)c(Cl)cn3)[C@H](C3CCCCO3)C2)c1` (relative stereo) [Example 848, 5-Chloro-N-[trans-1-[(1-methyl-1H-imidazol-4-yl)sulfonyl]-4-(tetrahydro-2H-pyran-2-yl)pyrrolidin-3-yl]-4-(trifluoromethyl)pyridin-2-amine], the Ki (radioligand binding, recombinant CHO cell membranes expressing human GlyT1c) was not above 1000 nM.
Take `CCCCC(=O)N[C@H]1CN(S(=O)(=O)c2cn(C)cn2)C[C@@H]1c1ccccc1` [Example 549, N-{(3R,4S)-1-[(1-methyl-1H-imidazol-4-yl)sulfonyl]-4-phenylpyrrolidin-3-yl}pentanamide]: the Ki under setting [1] is not above 10000 nM.
Same read-out and setting: as for `Cn1cnc(S(=O)(=O)N2C[C@@H](Nc3ccccc3F)[C@H](c3ccccc3)C2)c1` (relative stereo) [Example 69, trans-N-(2-fluorophenyl)-1-[(1-methyl-1H-imidazol-4-yl)sulfonyl]-4-phenylpyrrolidin-3-amine], the figure is not above 10000 nM; as for `Cn1cnc(S(=O)(=O)N2CC(Cc3ccccc3Br)C(c3ccccc3Br)C2)c1` (stereo not drawn) [Example 205, 4-{[3-(2-bromobenzyl)-4-(2-bromophenyl)pyrrolidin-1-yl]sulfonyl}-1-methyl-1H-imidazole], not above 1000 nM; as for `Cn1cnc(S(=O)(=O)N2C[C@H](NC(=O)NCc3ccccc3)[C@@H](c3ccc(F)cc3)C2)c1` [Example 742, 1-benzyl-3-{(3R,4S)-4-(4-fluorophenyl)-1-[(1-methyl-1H-imidazol-4-yl)sulfonyl]pyrrolidin-3-yl}urea], not above 1000 nM.
In the case of `Cn1cnc(S(=O)(=O)N2C[C@H](Nc3cccc(C(C)(O)C(F)(F)F)c3)[C@@H](c3ccccc3)C2)c1` (stereo partly drawn) [Example 399, 1,1,1-trifluoro-2-[3-({(3R,4S)-1-[(1-methyl-1H-imidazol-4-yl)sulfonyl]-4-phenylpyrrolidin-3-yl}amino)phenyl]propan-2-ol], under setting [1], the Ki was not above 100 nM.
The same measure, in the same setting: as for `Cn1cnc(S(=O)(=O)N2C[C@@H](O)[C@H](Nc3cccc(Cl)c3)C2)c1` (relative stereo) [Example 373, Trans-4-[(3-chlorophenyl)amino]-1-[(1-methyl-1H-imidazol-4-yl)sulfonyl]pyrrolidin-3-ol], the figure is not above 10000 nM; as for `Cn1cnc(S(=O)(=O)N2C[C@@H](Nc3cccc(Cl)c3)[C@H](C3CC3)C2)c1` (relative stereo) [Example 338, Trans-N-(3-chlorophenyl)-4-cyclopropyl-1-[(1-methyl-1H-imidazol-4-yl)sulfonyl]pyrrolidin-3-amine], not above 1000 nM; as for `CCCCNC[C@@H]1CN(S(=O)(=O)c2cn(C)cn2)C[C@H]1c1ccc(F)cc1` (relative stereo) [Example 595, N-({trans-4-(4-fluorophenyl)-1-[(1-methyl-1H-imidazol-4-yl)sulfonyl]pyrrolidin-3-yl}methyl)butan-1-amine], not above 10000 nM.
For the compound `Cn1cnc(S(=O)(=O)N2C[C@@H](CNc3ccc(C(F)(F)F)c(Cl)c3)[C@H](c3ccc(F)cc3)C2)c1` (relative stereo) [Example 311, 3-chloro-N-({trans-4-(4-fluorophenyl)-1-[(1-methyl-1H-imidazol-4-yl)sulfonyl]pyrrolidin-3-yl}methyl)-4-(trifluoromethyl)aniline], under setting [1], the Ki is not above 1000 nM.
As for `COc1ccc(N[C@@H]2CN(S(=O)(=O)c3cn(C)cn3)C[C@H]2c2ccccc2)cc1C#N` (relative stereo) [Example 100, 2-methoxy-5-({trans-1-[(1-methyl-1H-imidazol-4-yl)sulfonyl]-4-phenylpyrrolidin-3-yl}amino)benzonitrile], under setting [1], the Ki is not above 10000 nM.
Regarding `COCCCNC[C@@H]1CN(S(=O)(=O)c2cn(C)cn2)C[C@H]1c1ccc(F)cc1` (relative stereo) [Example 597, N-({trans-4-(4-fluorophenyl)-1-[(1-methyl-1H-imidazol-4-yl)sulfonyl]pyrrolidin-3-yl}methyl)-3-methoxypropan-1-amine], under setting [1], the Ki was not above 10000 nM.
With `Cn1cnc(S(=O)(=O)N2C[C@H](Nc3ccc4c(c3)CCO4)[C@@H](c3ccccc3)C2)c1` [Example 671, (3R,4S)-N-(2,3-dihydro-1-benzofuran-5-yl)-1-[(1-methyl-1H-imidazol-4-yl)sulfonyl]-4-phenylpyrrolidin-3-amine], under setting [1], the Ki was not above 1000 nM.
Regarding `Cn1cnc(S(=O)(=O)N2C[C@@H](NC(=O)c3ccc(C(F)(F)F)c(Cl)c3)[C@H](c3ccc(F)cc3)C2)c1` (relative stereo) [Example 63, 3-chloro-N-{trans-4-(4-fluorophenyl)-1-[(1-methyl-1H-imidazol-4-yl)sulfonyl]pyrrolidin-3-yl}-4-(trifluoromethyl)benzamide], under setting [1], the Ki is not above 100 nM.
On to `Cn1cnc(S(=O)(=O)N2C[C@H](Nc3ccc(F)cn3)[C@@H](c3ccc(F)cc3)C2)c1` [Example 737, 5-fluoro-N-{(3R,4S)-4-(4-fluorophenyl)-1-[(1-methyl-1H-imidazol-4-yl)sulfonyl]pyrrolidin-3-yl}pyridin-2-amine], for which the Ki under setting [1] was not above 100 nM.
On the same count and under the same terms, as for `Cn1cnc(S(=O)(=O)N2C[C@H](Nc3cc(-c4cccc(Cl)c4)ncn3)[C@@H](c3ccc(F)cc3)C2)c1` [Example 729, 6-(3-chlorophenyl)-N-{(3R,4S)-4-(4-fluorophenyl)-1-[(1-methyl-1H-imidazol-4-yl)sulfonyl]pyrrolidin-3-yl}pyrimidin-4-amine], the figure is not above 10 nM; as for `Cn1cnc(S(=O)(=O)N2C[C@H](Nc3cccc(OCC(F)(F)F)c3)[C@@H](c3ccccc3)C2)c1` [Example 670, (3R,4S)-1-[(1-methyl-1H-imidazol-4-yl)sulfonyl]-4-phenyl-N-[3-(2,2,2-trifluoroethoxy)phenyl]pyrrolidin-3-amine], not above 10 nM; as for `Cn1cnc(S(=O)(=O)N2C[C@@H](Nc3ccc(Cl)c(C#N)c3)[C@H](c3ccccc3)C2)c1` (relative stereo) [Example 79, 2-chloro-5-({trans-1-[(1-methyl-1H-imidazol-4-yl)sulfonyl]-4-phenylpyrrolidin-3-yl}amino)benzonitrile], not above 1000 nM.
As to `Cn1cnc(S(=O)(=O)N2C[C@@H](NC(=O)c3ccc(C(F)(F)F)cc3)[C@H](c3ccccc3)C2)c1` (relative stereo) [Example 37, N-{trans-1-[(1-methyl-1H-imidazol-4-yl)sulfonyl]-4-phenylpyrrolidin-3-yl}-4-(trifluoromethyl)benzamide], the inhibition constant (Ki) under setting [1] was not above 1000 nM.
